Test results: US5922711A, “8-substituted quinazolines, quinoxalines and benzopyridazines” (Fujisawa Pharmaceutical Co., Ltd., priority 1993, dated 1999)
Where a name gives a salt, the structure may show the parent alone.

Molecular target: T1, Bradykinin receptor (Cavia porcellus, UniProt O70526)
T1 construct: The ileum was removed and homogenized in buffer; from tissue; host or cells: guinea pig ileum, crude membrane suspension
T1 sequence (O70526 1-372): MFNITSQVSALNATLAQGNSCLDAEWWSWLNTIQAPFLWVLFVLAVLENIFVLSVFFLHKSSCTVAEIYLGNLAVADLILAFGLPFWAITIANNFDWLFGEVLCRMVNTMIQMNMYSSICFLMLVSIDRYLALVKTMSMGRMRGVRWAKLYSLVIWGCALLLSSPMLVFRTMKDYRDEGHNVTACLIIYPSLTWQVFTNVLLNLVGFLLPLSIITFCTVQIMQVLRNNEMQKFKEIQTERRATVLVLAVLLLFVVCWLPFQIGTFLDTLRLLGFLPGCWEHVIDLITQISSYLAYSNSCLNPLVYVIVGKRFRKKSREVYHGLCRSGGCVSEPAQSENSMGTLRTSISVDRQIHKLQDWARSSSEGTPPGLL
Test: 3H-Bradykinin receptor binding (guinea pig ileum crude membrane)
Conditions: concentration: 1 × 10^-6 M, 3H-Bradykinin 0.06 nM, room temperature, 60 minutes
Protocol: ^3 H-Bradykinin receptor binding
(a) Crude ileum membrane preparation
Male Hartly strain guinea pigs were sacrificed by decapitation. The ileum was removed and homogenized in buffer (50 mM trimethylaminoethanesulfonic acid (TES), 1 mM 1,10-phenanthroline pH 6.8). The homogenate was centrifuged (1000×g, 20 minutes) to remove tissue clumps and the supernatant was centrifuges (100,000×g, 60 minutes) to yield a pellet. The pellet was resuspended in buffer (50 mm TES, 1 mM 1,10-phenanthroline, 140 mg/l bacitracin, 1 mM dithiothreiol, 0.1% bovine serum albumin pH 6.8) and homogenized with a glass-teflon homogenizer to yield suspension which was referred to as crude membrane suspension. The obtained membrane suspension was stored at -80° C. until use.
(b) ^3 H-Bradykinin binding to the membrane
The frozen crude membrane suspension was thawed. In binding assays, ^3 H-Bradykinin (0.06 nM) and drug (1×10^-6 M) were incubated with 50 μl of the membrane suspension at room temperature for 60 minutes in a final volume of 250 μl. Separation of receptor-bound from free ^3 H-Bradykinin is achieved by immediate filtration under vacuum and washed three times with 5 ml of ice-cold buffer (50 mM Tris-HCl pH 7.5). Non-specific binding was defined as binding in the presence of 0.1 μM Bradykinin. The radioactivity retained on rinsed filters was determined by a liquid-scintillation counter.

Compound | inhibition at 1 µM
CCc1cc(Cl)c2cccc(OCc3c(Cl)ccc(N(C)C(=O)CNC(=O)Nc4cccc(C(C)=O)c4)c3Cl)c2n1 [29-(36), 8-[3-[N-[N'-(3-Acetylphenyl)ureidoacetyl]-N-methylamino]-2,6-dichlorobenzyloxy]-4-chloro-2-ethylquinoline hydrochloride] | 98%
Cc1ccc2cccc(OCc3c(Cl)ccc(N(C)C(=O)CNC(=O)Nc4cccc(C(=O)N(C)c5cccnc5)c4)c3Cl)c2n1 [34-(7), 8-[2,6-Dichloro-3-[N-methyl-N-[N'-[3-[N-methyl-N-(3-pyridyl)carbamoyl]phenyl]ureidoacetyl]amino]benzyloxy]-2-methylquinoline] | 100%
Cc1ccc2cccc(OCc3c(Cl)ccc(N(C)C(=O)CNC(=O)/C=C/c4ccc(N)cc4)c3Cl)c2n1 [35-(3), 8-[3-[N-(4-Aminocinnamoylglycyl)-N-methylamino]-2,6-dichlorobenzyloxy]-2-methylquinoline] | 99%
Cc1ccc2cccc(OCc3c(Cl)ccc(N(C)C(=O)CNC(=O)Nc4cccc(N)c4)c3Cl)c2n1 [41-(12), 8-[3-[N-[N'-(3-Aminophenyl)ureidoacetyl]-N-methylaminol-2,6-dichlorobenzyloxy]-2-methylquinolinedihydrochloride] | 95%
Cc1ccc2cccc(OCc3c(Cl)ccc(N(C)C(=O)CNC(=O)/C=C/c4ccc(OCCN(C)C)cc4)c3Cl)c2n1 [41-(53), 8-[2,6-Dichloro-3-[N-[4-[2-(N,N-dimethylamino)ethoxy]cinnamoylglycyl)-N-methylamino]benzloxy]-2-methylquinoline dihydrochloride] | 99%
CCNC(=O)NCC(=O)N(C)c1ccc(Cl)c(COc2cccc3c(OC)cc(C)nc23)c1Cl [41-(64), 8-[2,6-Dichloro-3-[N-(N'-ethylureidoacetyl)-N-methylamino]benzyloxy]-4-methoxy-2-methylquinoline hydrochloride] | 95%
CCC(=O)Nc1cccc(NC(=O)NCC(=O)N(C)c2ccc(Cl)c(COc3cccc4ccc(C)nc34)c2Cl)c1 [57 (hydrochloride), 8-[2,6-Dichloro-3-[N-methyl-N-[N'-(3-propionamidophenyl)ureidoacetyl]amino]benzyloxy]-2-methylquinoline] | 99%
Cc1ccc2cccc(OCc3c(Cl)ccc(N(C)C(=O)CNC(=O)/C=C/c4ccc(NC(=O)c5ccccn5)cc4)c3Cl)c2n1 [58-(11) (dihydrochloride), 8-[2,6-Dichloro-3-[N-methyl-N-[4-(2-pyridine-carboxamido)cinnamoylglycyl]amino]benzyloxy]-2-methylquinoline] | 99%
